Results on 51 sequences are retold here after US9550811B2, “Peptide scaffold design” (BIONOR IMMUNO AS, priority 2010, dated 2017).

One assay concerns DC-cells. The experiment in a line: Cell penetration assay: staining for biotinylated peptides, dendritic cells gated as CD11c+. Format: cell-based, human. The note with it: low concentration of peptides (208 uM). The method, then:
A set of peptides were biotinylated on N-terminal, and different combinations of aminoacids, with respect to length and type, were added to the sequence box X^1, X^3 and X^4 in the peptides as illustrated by the diagram below. The peptides were tested on cells grown from one individual blood donor.
96-well U-bottom polystyrene plates (NUNC, cat no: 163320) were used for staining of human PBMCs. Briefly, 8 ul of N- or C-terminally biotinylated peptides according to table 1 or table 2 (i.e. 5 mM, 2.5 mM & 1.25 mM tested for each peptide) were incubated at 37° C. for 2 h with 40 ul of PBMC (12.5×10^6 cells/ml) from blood donors. Cells were then washed 3× with 150 ul of Cellwash (BD, cat no: 349524), followed by resuspension of each cell pellet with 100 ul of Trypsin-EDTA (Sigma, cat no: T4424), then incubated at 37° C. for 5 min. Trypsinated cells were then washed 3× with 150 ul of Cellwash (BD, cat no: 349524), followed by resuspension with BD Cytofix/Cytoperm™ plus (BD, cat no: 554715), then incubated at 4° C. for 20 min according to manufacturer. Cells were then washed 2× with 150 ul PermWash (BD, cat no: 554715). Cells were then stained with Streptavidin-APC (BD, cat no: 554067) & Anti-hCD11c (eBioscience, cat no: 12-0116) according to manufacturer at 4° C. for 30 min aiming to visualize biotinylated peptides & dendritic cells, respectively. Cells were then washed 3× with 150 ul PermWash, followed by resuspension in staining buffer (BD, cat no: 554656) before flow cytometry. Dendritic cells were gated as CD11c+ events outside lymphocyte region (i.e. higher FSC & SSC signals than lymphocytes). 200 000 total cells were acquired on a FACSCanto II flow cytometer with HTS loader, and histograms for both total cells & dendritic cells with respect to peptide-fluorescence (i.e. GeoMean) were prepared.
As shown in table 4 the peptides according to the invention had the ability to allocate through the cell membrane.

A further assay deals with human PBMCs. Format: cell-based. As to conditions: for Geomean value (peptide-fluorescence): With Cytofix/Cytoperm and trypsination, BC20.

Read-outs that look alike come from different tables or passages of the source. Where no end group is shown, it is not given here. [ ]: non-standard residue; d: D form. Nle = CCCC[C@H](N)C(=O)O

Consider GYIPLVGAPLGGVARALAHGVRV [51n], for which the “Results on DC-cells (geomean peptide-fluorescence)” value (“Results on DC-cells” below) came out at 5551 in the assay with DC-cells (BC 16) and 7721 with DC-cells (BC43).
The matching figures for WWNYVTGNIPGBRGITFSIFLIVS [SP61_3]: 47182 and 36803.
In the case of RGYIPLVGAPLGRRRVARALAHGVRV [SP4_c], the “Results on DC-cells” value with DC-cells (BC 16) is reported as 20673; in the assay on DC-cells (BC43) it was 30786.
The like results for RRRGYIPLVGAPLGBRVARALAHGVRV [SP8_c] were, in that order, 9159 and 23763.
Regarding RRVTGNIPGSTYSGBRGITFSIYLIVS [SP25], the “Results on DC-cells” value with DC-cells (BC 16) was 11552.
Consider RNLVPMVATVBRRNLVPMVATVB [BI-050sc2], for which the figures for the “Results on DC-cells” value in the assay with DC-cells (BC 16) and with DC-cells (BC43) were 6019 and 11584, respectively.
As for GGGYIPLVGAPLGGGVARALAHGVRV [SP15], the “Results on DC-cells” value with DC-cells (BC 16) came out at 5076; in the assay with DC-cells (BC43) it was 2539. Also, the “Geomean value (peptide-fluorescence)” value amounted to 600 in the assay on human PBMCs (concentration 104 μM), 848 with human PBMCs (concentration 208 μM), 477 with human PBMCs (concentration 417 μM) and 1810 in the assay on human PBMCs (concentration 833 μM).
For the sequence “KKGYIPLVGAPLGKKVARALAHGVRV [SP11_c] (KKGYIPLVGAPLGKKVARALAHGVRV-NH2)”, the entries for the “Results on DC-cells” value in the assay on DC-cells (BC 16) and in the assay with DC-cells (BC43) were 5371 and 7878, respectively.
RNLVPMVATVRRNLVPMVATVB [BI-050sc1]: the “Results on DC-cells” value in the assay on DC-cells (BC 16) is recorded as 6056; in the assay on DC-cells (BC43), 6160.
The like results for RRGYIPLVGAPLGBGRVARALAHGVRV [SP2_c] were, in that order, 323 and 13341.
For RGYIPLVGAPLGRRRVARALAHGVRV [SP10], the “Results on DC-cells” value worked out at 8627 with DC-cells (BC 16) and 9216 with DC-cells (BC43). For the same sequence, the “Geomean value (peptide-fluorescence)” value in the assay with human PBMCs (concentration 104 μM) is listed as 3709; with human PBMCs (concentration 208 μM), 7684; with human PBMCs (concentration 417 μM), 18607; with human PBMCs (concentration 833 μM) it was 43389.
“RRGGGQIVGGVYLLPRRGPRLGVRATR [310-11-n-sc]”: the “Results on DC-cells” value with DC-cells (BC 16) amounted to 25236.
Take RNLVPMVATVBRRNLVPMVATVB [compound 18]: the “Intracellular staining, median” value in the assay with human PBMCs stood at 3.86.
Consider WWGGGQIVGGVYLLPRRGPRLGVRAT [SP11b_1], for which the “Results on DC-cells” value with DC-cells (BC 16) is given as 64047.
Turning to LFFKCIYRLFKHGLKRGPSTEGVPESM [BI10024b], the “Results on DC-cells” value in the assay with DC-cells (BC 16) was determined as 26892; in the assay on DC-cells (BC43) it was 13002.
For BRGYIPLVGAPLGRRVARALAHGVRV [SP7_c], the “Results on DC-cells” value is reported as 20041 with DC-cells (BC 16) and 11832 in the assay with DC-cells (BC43).
As for WWSRNLGKVIDTLTCRRLMGYIPLVGA [SP42b_1], the “Results on DC-cells” value with DC-cells (BC 16) is on record as 17628.
Consider “RGYIPLVGAPLGRRVARALAHGVRV [SP24] (RGYIPLVGAPLGRRVARALAHGVRV-NH2)”, for which the “Results on DC-cells” value in the assay on DC-cells (BC 16) was found to be 18181; with DC-cells (BC43), 63639.
With “BRRLFFKTITRLFBHGLRRLLSTEGVPNSZ [BI10026]”, the “Results on DC-cells” value amounted to 65196 in the assay on DC-cells (BC 16) and 43536 in the assay with DC-cells (BC43).
Turning to BRTAYERZCNILBRGRFQTVVQBA [compound 190], the “Results on DC-cells” value with DC-cells (BC 16) amounted to 12906.
On the same count and under the same terms, the same measure for WWNYVTGNIPGRRGITFSIFLIVS [SP61_4]: 12829.
With EDLIFLARSALILRGSVAHKS [100-22b], the “Results on DC-cells” value in the assay on DC-cells (BC 16) was determined as 43537; in the assay with DC-cells (BC43) it was 28780.
On to “WWGYIPLVGAPLGRRVARALAHGVRV [SP13_c] (WWGYIPLVGAPLGRRVARALAHGVRV-NH2)”, for which, in the assay on DC-cells (BC43), the “Results on DC-cells” value was found to be 60307.
BRIAYERMCNILLBRGKFQTAAQRA [190b]: the “Results on DC-cells” value was 12391 in the assay with DC-cells (BC 16) and 20444 in the assay on DC-cells (BC43).
WWGYLPAVGAPIRRVIRVIAHGLRL [SP51_1*]: in the assay on DC-cells (BC 16), the “Results on DC-cells” value is recorded as 66582.
Same read-out and setting: to BRGSDPLVVAASIVRRASIVGILHLIL [BI100260b] belongs 37702; to BRGLEPLVIAGILARRGSLVGLLHIVL [BI100260], 47846.
For “RRGYIPLVGAPLGRRRVARALAHGVRV [SP6_c] (RRGYIPLVGAPLGRRRVARALAHGVRV-NH2)”, the entries for the “Results on DC-cells” value in the assay on DC-cells (BC 16) and in the assay on DC-cells (BC43) were 17964 and 38487, respectively.
For SAYERMCNILKGKFQTAAQRAMM [18b], the “Results on DC-cells” value came to 29740 in the assay on DC-cells (BC 16) and 33597 in the assay with DC-cells (BC43).
For the sequence WWGYIPLVGAPLGRVARALAHGVRV [SP23], the “Results on DC-cells” value with DC-cells (BC 16) turned out to be 17084; in the assay with DC-cells (BC43), 12801.
For the sequence “RGYIPLVGAPLGRRRVARALAHGVRV [SP10_c] (RGYIPLVGAPLGRRRVARALAHGVRV-NH2)”, the “Results on DC-cells” value with DC-cells (BC 16) was 6904.
Same read-out and setting: the same measure for BRLIFLARSALILBGRSALILRGSVAHK [120b]: 44185.
As for BRTAYERZCNILBRGRFQTVVQBA [compound 17], the “Intracellular staining, median” value in the assay on human PBMCs was found to be 20.77.
As for “RGYIPLVGAPLGKKKVARALAHGVRV [SP9_c] (RGYIPLVGAPLGKKKVARALAHGVRV-NH2)”, the “Results on DC-cells” value with DC-cells (BC 16) is listed as 6180; with DC-cells (BC43), 7758.
The matching figures for “RGYIPLVGAPLGRRVARALAHGVRV [SP3_c] (RGYIPLVGAPLGRRVARALAHGVRV-NH2)”: 18505 and 26308.
The matching figures for IAYERMCNILKGKFQTAAQRA [190n]: 18616 and 23383.
For RNIVPZVVTARRNIVPZVVTAB [BI-050sc5], the “Results on DC-cells” value with DC-cells (BC 16) came to 13648; in the assay on DC-cells (BC43) it was 15549.
The matching figures for BRLIFLARSALIVRGSVAHKS [100-12]: 24792 and 45622.
The matching figures for KALGPAATLEEMMTACQGVG [N13]: 7982 and 5953.
In the case of RRGYIPLVGAPLGLRRVARALAHGVRV [SP17_c], the “Results on DC-cells” value with DC-cells (BC 16) stood at 11830.
Turning to WWIRNLGRVIETLTRRLZGYIPLIGA [SP42_1], the “Results on DC-cells” value with DC-cells (BC 16) was 73973.
For the sequence “YGRKKRRQRRR [compound 4, Positive control (tat), reference compound]”, in the assay with human PBMCs, the “Intracellular staining, median” value is 4.43.
“WWGYIPLVGAPLGRRVARALAHGVRV [SP21] (WWGYIPLVGAPLGRRVARALAHGVRV-NH2)”: the “Results on DC-cells” value in the assay on DC-cells (BC 16) came to 26525; in the assay with DC-cells (BC43), 4294.
Turning to PEVIPMFSALSEGATPQDLNTMLN [N10], in the assay with DC-cells (BC 16), the “Results on DC-cells” value amounted to 4597.
With “RRGYIPLVGAPLGRRVARALAHGVRV [SP5_c] (RRGYIPLVGAPLGRRVARALAHGVRV-NH2)”, the “Results on DC-cells” value in the assay on DC-cells (BC 16) worked out at 16908; in the assay on DC-cells (BC43) it was 24403.
As for “WGYIPLVGAPLGRRVARALAHGVRV [SP12_c] (WGYIPLVGAPLGRRVARALAHGVRV-NH2)”, the “Results on DC-cells” value was 37100 with DC-cells (BC 16) and 43386 in the assay with DC-cells (BC43).
The matching figures for RRNYVTGNIPGBRGITFSIFLIVS [SP61_2]: 128330 and 150491.
With GGGQIVGGVYLLPRRGPRLGVRATR [310-11n], the “Results on DC-cells” value with DC-cells (BC 16) was 5436.
As to WWGYIPLVGAPLGRRRVARALAHGVRV [SP22], the “Results on DC-cells” value worked out at 61597 with DC-cells (BC 16) and 18624 in the assay on DC-cells (BC43).
In the case of “RFIIPXFTALSGGRRALLYGATPYAIG (RFIIP[Nle]FTALSGGRRALLYGATPYAIG) [V10]”, in the assay with DC-cells (BC 16), the “Results on DC-cells” value worked out at 45430.
As for “GYIPLVGAPLGGVARALAHGVRV [SP1_C] (GYIPLVGAPLGGVARALAHGVRV-NH2)”, in the assay on DC-cells (BC 16), the “Results on DC-cells” value was 9234.
